Assay results: patent US6552038B1, “Anticoagulant agents” (Eli Lilly and Company, priority 1996, dated 2003)
Counter-ions that a name gives are not always drawn.

Experiments:
human thrombin = human thrombin (Homo sapiens, UniProt P00734); assay: Inhibition of the amidase activity of thrombin (chromogenic substrate), Kass; format: biochemical; settings: purified human thrombin, N-benzoyl-L-Phe-L-Val-L-Arg-p-nitroanilide, pH 7.4; mean value
Protocol: The assay is carried out by mixing 50 μl buffer (0.03M Tris, 0.15M NaCl, pH 7.4) with 25 μl of human thrombin solution (purified human thrombin, Enzyme Research Laboratories, South Bend, Ind., at 8 NIH units/ml) and 25 μl of test compound in a solvent (50% aqueous methanol (v:v)). Then 150 μl of an aqueous solution of the chromogenic substate (at 0.25 mg/ml) are added and the rates of hydrolysis of the substrate are measured by monitoring the reactions at 405 nm for the release of p-nitroaniline. Standard curves are constructed by plotting free thrombin concentration against hydrolysis rate. The hydrolysis rates observed with test compounds are then converted to “free thrombin” values in the respective assays by use of the standard curves. The bound thrombin (bound to test compound) is calculated by subtracting the amount of free thrombin observed in each assay from the known initial amount of thrombin used in the assay. The amount of free inhibitor in each assay is calculated by subtracting the number of moles of bound thrombin from the number of moles of added inhibitor (test compound). […]
Kass is calculated for a range of concentrations of test compounds and the mean value reported in units of liter per mole. […] For example, each of the particularly preferred examples of the invention listed above was determined to have a Kass of at least 100×10^6 L/mole.

human or animal plasma = assay: Anticoagulation determination: thrombin time (TT) in plasma; settings: compound added to plasma; linear extrapolation to doubling of thrombin time
Protocol: Dog plasma and rat plasma are obtained from conscious mixed-breed hounds (either sex, hazelton-LRE, Kalamazoo, Mich., U.S.A.) or from anesthetized male Sprague-Dawley rats (Harlan Sprague-Dawley, Inc., Indianapolis, Ind., U.S.A.) by venipuncture into 3.8 percent citrate. Fibrinogen is prepared from in-date ACD human blood as the fraction I-2 according to previous procedures and specifications. Smith, Biochem. J., 185, 1-11 (1980); and Smith, et al., Biochemistry, 11, 2958-2967 (1972). Human fibrinogen is also purchased as 98 percent pure/plasmin free from American Diagnostica, Greenwich, Conn. Coagulation reagents ACTIN, Thromboplastin, and Human plasma are from Baxter Healthcare Corp., Dade Division, Miami, Fla. Bovine thrombin from Parke-Davis (Detroit, Mich.) is used for coagulation assays in plasma.
Coagulation assay procedures are as previously described. Smith, et al., Thrombosis Research, 50, 163-174 (1988). A CoAScreener coagulation instrument (American LABor, Inc.) is used for all coagulation assay measurements. The thrombin time (TT) is measured by adding 0.05 ml saline and 0.05 ml thrombin (10 NIH units/ml) to 0.05 ml test plasma. The activated partial thromboplastin time (APTT) is measured by incubation of 0.05 ml test plasma with 0.05 ml Actin reagent for 120 seconds followed by 0.05 ml CaCl2 (0.02 M). The prothrombin time (PT) is measured by adding 0.05 ml saline and 0.05 ml Thromboplastin-C reagent to 0.05 ml test plasma. The compounds of formula I are added to human or animal plasma over a wide range of concentrations to determine prolongation effects on the TT, APTT and PT assays. Linear extrapolations are performed to estimate the concentrations required to double the clotting time for each assay. Each of the particularly preferred examples of the invention listed above was determined to have a TT value of less than 50 ng/mL. For example, the respective values (in ng/mL) for TT were 6, 6 and 23 for the compounds of Examples 1, 3 and 5.

[1] = Octanol/water distribution coefficient logD at pH 7.4; format: physicochemical

Structure (SMILES)	Kass (hypothetical equilibrium constant for the reaction between thrombin and the test compound) (human thrombin)	TT value (concentration required to double the clotting time, thrombin time) (human or animal plasma) [ng/mL]	logD(7.4) [1]
Cl.N=C(N)c1ccc(CNC(=O)[C@@H]2CCCN2C(=O)[C@@H](CC2CCCCC2)NCC(=O)O)cc1O [Example 3, N-carboxymethyl-D-cyclohexylalanyl-N-[[4-(aminoiminomethyl)-3-hydroxyphenyl]methyl]-L-prolinamide hydrochloride]	1,200×10^6 L/mole	6	0.55
N=C(N)c1ccc(CNC(=O)[C@@H]2CCCN2C(=O)[C@H](N)CC2CCCCC2)cc1O [Example 1, D-cyclohexylalanyl-N-[[4-(aminoiminomethyl)-3-hydroxyphenyl]methyl]-L-prolinamide dihydrochloride]	–	6	–
CCS(=O)(=O)N[C@H](CC1CCCCC1)C(=O)N1CCC[C@H]1C(=O)NCc1ccc(C(=N)N)c(O)c1 [Example 5, N-ethylsulfonyl-D-cyclohexylalanyl-N-[[4-(aminoiminomethyl)-3-hydroxyphenyl]methyl]-L-prolinamide hydrochloride]	–	23	–
